Results reported in ChEMBL document CHEMBL1201862, “PubChem BioAssay data set” (2004).
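1) Cells in 96-well plates. 2) Compound, 48 h, 5 concentrations. 3) Linear interpolation between surrounding doses. 4) Unreached endpoint = highest concentration. GI50 marks 50% less growth.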 Active and inactive are the calls of the source. No stated cut-off is given here; in the data, active = GI50 up to about 1.1 µM and inactive = higher.

What was measured:
Assay in all cases: inhibition of tumour cell growth, NCI panel, 48 h
786-0 = test system: 786-0
DMS-273 = test system: DMS-273
A549 = test system: A549
OVCAR-5 = test system: OVCAR-5
TK-10 = test system: TK-10
MOLT-4 = test system: MOLT-4
M19-MEL = test system: M19-MEL
RPMI-8226 = test system: RPMI-8226
A498 = test system: A498
UACC-257 = test system: UACC-257
SR = test system: SR
SNB-75 = test system: SNB-75
UACC-62 = test system: UACC-62
KM-20L2 = test system: KM-20L2
HL-60 = test system: HL-60
SN12C = test system: SN12C
RXF 631 = test system: RXF 631
NCI-H522 = test system: NCI-H522
CAKI-1 = test system: CAKI-1
HCC 2998 = test system: HCC 2998
SF-295 = test system: SF-295
OVCAR-4 = test system: OVCAR-4
SF-539 = test system: SF-539
IGROV-1 = test system: IGROV-1
SK-MEL-28 = test system: SK-MEL-28
NCI-H23 = test system: NCI-H23
SK-MEL-5 = test system: SK-MEL-5
HOP-62 = test system: HOP-62
U-251 = test system: U-251
OVCAR-3 = test system: OVCAR-3
HT-29 = test system: HT-29
SW-620 = test system: SW-620
OVCAR-8 = test system: OVCAR-8
NCI-H460 = test system: NCI-H460
UO-31 = test system: UO-31
SNB-19 = test system: SNB-19
SK-OV-3 = test system: SK-OV-3
LXFL 529 = test system: LXFL 529
DMS-114 = test system: DMS-114
KM12 = test system: KM12
SNB-78 = test system: SNB-78
ACHN = test system: ACHN
DLD-1 = test system: DLD-1
LOX IMVI = test system: LOX IMVI
HOP-92 = test system: HOP-92
HOP-18 = test system: HOP-18
HCT-15 = test system: HCT-15
M14 = test system: M14
SF-268 = test system: SF-268
HCT-116 = test system: HCT-116
EKVX = test system: EKVX
XF498 = test system: XF498
CCRF-CEM = test system: CCRF-CEM
K562 = test system: K562
Malme-3M = test system: Malme-3M
SK-MEL-2 = test system: SK-MEL-2
COLO 205 = test system: COLO 205
NCI-H226 = test system: NCI-H226
RXF 393 = test system: RXF 393

## O=C(/C=C/c1ccco1)N1CCN(Cc2ccccc2)CC1
786-0
  GI50: > 100 µM (inactive)
DMS-273
  GI50: > 100 µM (inactive)
A549
  GI50: > 100 µM (inactive)
OVCAR-5
  GI50: > 100 µM (inactive)
TK-10
  GI50: > 100 µM (inactive)
MOLT-4
  GI50: > 100 µM (inactive)
M19-MEL
  GI50: > 100 µM (inactive)
RPMI-8226
  GI50: > 100 µM (inactive)
A498
  GI50: > 100 µM (inactive)
UACC-257
  GI50: > 100 µM (inactive)
SR
  GI50: > 100 µM (inactive)
SNB-75
  GI50: > 100 µM (inactive)
UACC-62
  GI50: > 100 µM (inactive)
KM-20L2
  GI50: > 100 µM (inactive)
HL-60
  GI50: > 100 µM (inactive)
SN12C
  GI50: > 100 µM (inactive)
RXF 631
  GI50: > 100 µM (inactive)
NCI-H522
  GI50: > 100 µM (inactive)
CAKI-1
  GI50: > 100 µM (inactive)
HCC 2998
  GI50: > 100 µM (inactive)
SF-295
  GI50: > 100 µM (inactive)
OVCAR-4
  GI50: > 100 µM (inactive)
SF-539
  GI50: > 100 µM (inactive)
IGROV-1
  GI50: > 100 µM (inactive)
SK-MEL-28
  GI50: > 100 µM (inactive)
NCI-H23
  GI50: > 100 µM (inactive)
SK-MEL-5
  GI50: > 100 µM (inactive)
HOP-62
  GI50: > 100 µM (inactive)
U-251
  GI50: > 100 µM (inactive)
OVCAR-3
  GI50: > 100 µM (inactive)
HT-29
  GI50: > 100 µM (inactive)
SW-620
  GI50: > 100 µM (inactive)
OVCAR-8
  GI50: > 100 µM (inactive)
NCI-H460
  GI50: > 100 µM (inactive)
UO-31
  GI50: 96.8 µM (inactive)
SNB-19
  GI50: > 100 µM (inactive)
SK-OV-3
  GI50: > 100 µM (inactive)
LXFL 529
  GI50: > 100 µM (inactive)
DMS-114
  GI50: > 100 µM (inactive)
KM12
  GI50: > 100 µM (inactive)
SNB-78
  GI50: > 100 µM (inactive)
ACHN
  GI50: > 100 µM (inactive)
DLD-1
  GI50: > 100 µM (inactive)
LOX IMVI
  GI50: > 100 µM (inactive)
HOP-92
  GI50: > 100 µM (inactive)
HOP-18
  GI50: > 100 µM (inactive)
HCT-15
  GI50: > 100 µM
M14
  GI50: > 100 µM (inactive)
SF-268
  GI50: > 100 µM (inactive)
HCT-116
  GI50: > 100 µM (inactive)
EKVX
  GI50: > 100 µM (inactive)
XF498
  GI50: > 100 µM (inactive)
CCRF-CEM
  GI50: > 100 µM (inactive)

## CC(C)(C)NNC(=O)/C(=C/c1ccc(Oc2ccc(Cl)c(Cl)c2)cc1)NC(=O)c1ccccc1
786-0
  GI50: 59.6 µM (inactive)
DMS-273
  GI50: 21.5 µM (inactive)
A549
  GI50: > 100 µM (inactive)
K562
  GI50: 42.5 µM (inactive)
OVCAR-5
  GI50: > 100 µM (inactive)
TK-10
  GI50: > 100 µM (inactive)
MOLT-4
  GI50: 65 µM (inactive)
M19-MEL
  GI50: > 100 µM (inactive)
RPMI-8226
  GI50: 22.1 µM (inactive)
A498
  GI50: > 100 µM (inactive)
UACC-257
  GI50: > 100 µM (inactive)
SR
  GI50: 16.9 µM (inactive)
SNB-75
  GI50: > 100 µM (inactive)
UACC-62
  GI50: > 100 µM (inactive)
KM-20L2
  GI50: 95.3 µM (inactive)
HL-60
  GI50: 40.5 µM (inactive)
SN12C
  GI50: > 100 µM (inactive)
RXF 631
  GI50: 34 µM (inactive)
NCI-H522
  GI50: > 100 µM (inactive)
CAKI-1
  GI50: > 100 µM (inactive)
HCC 2998
  GI50: > 100 µM (inactive)
Malme-3M
  GI50: > 100 µM (inactive)
SK-MEL-2
  GI50: > 100 µM (inactive)
SF-295
  GI50: > 100 µM (inactive)
OVCAR-4
  GI50: > 100 µM (inactive)
SF-539
  GI50: > 100 µM (inactive)
IGROV-1
  GI50: > 100 µM (inactive)
SK-MEL-28
  GI50: > 100 µM (inactive)
NCI-H23
  GI50: > 100 µM (inactive)
SK-MEL-5
  GI50: > 100 µM (inactive)
HOP-62
  GI50: > 100 µM (inactive)
U-251
  GI50: > 100 µM (inactive)
OVCAR-3
  GI50: > 100 µM (inactive)
HT-29
  GI50: > 100 µM (inactive)
OVCAR-8
  GI50: > 100 µM (inactive)
NCI-H460
  GI50: 40.6 µM (inactive)
UO-31
  GI50: > 100 µM (inactive)
SNB-19
  GI50: > 100 µM (inactive)
SK-OV-3
  GI50: > 100 µM (inactive)
LXFL 529
  GI50: > 100 µM (inactive)
DMS-114
  GI50: 18.5 µM (inactive)
KM12
  GI50: > 100 µM (inactive)
SNB-78
  GI50: > 100 µM (inactive)
ACHN
  GI50: > 100 µM (inactive)
DLD-1
  GI50: 31.1 µM (inactive)
LOX IMVI
  GI50: 18.9 µM (inactive)
HOP-92
  GI50: > 100 µM (inactive)
HOP-18
  GI50: > 100 µM (inactive)
COLO 205
  GI50: 16.2 µM (inactive)
HCT-15
  GI50: > 100 µM
M14
  GI50: > 100 µM (inactive)
SF-268
  GI50: > 100 µM (inactive)
HCT-116
  GI50: > 100 µM (inactive)
EKVX
  GI50: > 100 µM (inactive)
NCI-H226
  GI50: > 100 µM (inactive)
XF498
  GI50: > 100 µM (inactive)
RXF 393
  GI50: > 100 µM (inactive)
CCRF-CEM
  GI50: 69.5 µM (inactive)
